From patent publication US8168647B2, “Vinblastine derivatives, their preparation, use and pharmaceutical compositions comprising the said derivatives” (Shanghai Institute of Materia Medica Chinese Academy of …, priority 2007, dated 2012) come the findings set out here.

Where a name gives a salt, the structure may show the parent alone. Read-outs that look alike come from different tables or passages of the source. Marks after values point to notes of the source that are not given here.

In data set [1] the test system is human non-small cell lung cancer cell line A-549. The data set can be described thus: In vitro cytotoxicity assay, Sulforhodamine B (SRB), A-549. Type of data set: cell-based.
Data set [2] concerns human cervical carcinoma cell line Hela. Nature of the data set: In vitro cytotoxicity assay, Sulforhodamine B (SRB), Hela. Type of data set: cell-based.
For a further data set, the system named is sarcoma 180. Nature of the data set: In vivo antitumor assay on Sarcoma 180 (S180) in mice. Conditions: for inhibition in vivo at 10 mg/kg / inhibition in vivo at 20 mg/kg / inhibition in vivo at 40 mg/kg: Mus musculus, Sarcoma-180, iv; for inhibition in vivo at 10 mg/kg: read-out: Inhibition rate %, 10 mg/kg, iv, d 1, 4.
[3] abbreviates: Homo sapiens, A549, 72 h, read-out: A549 (IC50, nM).
Where [4] appears, read: Homo sapiens, HeLa, 72 h, read-out: Hela (IC50, nM).
The mark [5] stands for this setting: read-out: Inhibition rate %, 20 mg/kg, iv d 1.
Setting [6] is: read-out: Inhibition rate %, 20 mg/kg, iv, d 1, 4.
[7] abbreviates: read-out: Inhibition rate %, 40 mg/kg, iv, d 1, 4.

The term IC50 denotes the concentration that inhibits the measured activity by half.

For `CCC1=C[C@@H]2CN(CCc3c([nH]c4ccccc34)[C@@](C(=O)OC)(c3cc4c(cc3OC)N(C)[C@H]3C(O)(CNC(=O)C5CC5)[C@H](OC(C)=O)[C@]5(CC)C=CCN6CC[C@]43[C@@H]65)C2)C1` (stereo partly shown) [BM33], in data set [1], the “cell-based efficacy, inhibition of tumor cell proliferation (in words)” value (“cell-based efficacy, inhibition” below) was “excellent cell-based efficacy”. Moreover, the values for the IC50 in data set [1] (setting [3]) and in data set [2] (setting [4]) were 26.4 nM and 17 nM, respectively. Further, the “Average weight (g) At sacrifice” value in the data set on sarcoma 180 (10 mg/kg, iv, d 1, 4) amounted to 22.2 g; in the data set with sarcoma 180 (20 mg/kg, iv d 1) it was 23.9 g. Besides, the “Tumor Weight (g) X ± SD” value in the data set with sarcoma 180 (10 mg/kg, iv, d 1, 4) is reported as 0.30 ± 0.05 g; with sarcoma 180 (20 mg/kg, iv d 1), 0.18 ± 0.02 g. Moreover, the inhibition in vivo at 10 mg/kg in the data set with sarcoma 180 stood at 81.3%. Also, in the data set on sarcoma 180 (setting [5]), the inhibition in vivo at 20 mg/kg was found to be 88.8%.
Turning to `CC[C@]12C=CCN3CC[C@@]4(c5cc([C@@]6(C(=O)OC)C[C@@H]7C[C@@H](C(C)(F)F)CN(CCc8c6[nH]c6ccccc86)C7)c(OC)cc5N(C)[C@H]4C(O)(CNC(=O)OC)[C@@H]1OC(C)=O)[C@@H]32` (stereo partly shown) [BM79], the IC50 in data set [1] (setting [3]) and in data set [2] (setting [4]) was above 1000 nM each time. Moreover, the “Average weight (g) At sacrifice” value in the data set with sarcoma 180 (20 mg/kg, iv, d 1, 4) stood at 33.0 g; in the data set on sarcoma 180 (40 mg/kg, iv, d 1, 4), 29.5 g. Besides, the “Tumor Weight (g) X ± SD” value came out at 1.47 ± 0.15 g with sarcoma 180 (20 mg/kg, iv, d 1, 4) and 0.84 ± 0.49 g in the data set on sarcoma 180 (40 mg/kg, iv, d 1, 4). For the same molecule, the inhibition in vivo at 20 mg/kg in the data set with sarcoma 180 (setting [6]) was 8.1%. In addition, the inhibition in vivo at 40 mg/kg with sarcoma 180 (setting [7]) was 47.5%.
With `CCC1=C[C@@H]2CN(CCc3c([nH]c4ccccc34)[C@@](C(=O)OC)(c3cc4c(cc3OC)N(C)[C@H]3C(O)(CNC(=O)OCC(C)C)[C@H](OC(C)=O)[C@]5(CC)C=CCN6CC[C@]43[C@@H]65)C2)C1` (stereo partly shown) [BM53], the “cell-based efficacy, inhibition” value in data set [1] is “excellent cell-based efficacy”. Besides, the results for the IC50 in data set [1] (setting [3]) and in data set [2] (setting [4]) were 13.7 nM and 7.1 nM, respectively. In addition, the “Average weight (g) At sacrifice” value in the data set on sarcoma 180 (10 mg/kg, iv, d 1, 4) amounted to 25.4 g. Also, the “Tumor Weight (g) X ± SD” value in the data set with sarcoma 180 (10 mg/kg, iv, d 1, 4) came out at 0.24 ± 0.09 g. Moreover, the inhibition in vivo at 10 mg/kg in the data set with sarcoma 180 amounted to 85%.
For the molecule `CC[C@]12C=CCN3CC[C@@]4(c5cc([C@@]6(C(=O)OC)C[C@@H]7C[C@@H](C(C)(F)F)CN(CCc8c6[nH]c6ccccc86)C7)c(OC)cc5N(C)[C@H]4C(O)(COC(=O)C4CC4)[C@@H]1OC(C)=O)[C@@H]32` (stereo partly shown) [BM76], the IC50 in data set [1] (setting [3]) and in data set [2] (setting [4]) was above 1000 nM in each case. Moreover, the “Average weight (g) At sacrifice” value in the data set on sarcoma 180 (20 mg/kg, iv, d 1, 4) was 31.4 g; with sarcoma 180 (40 mg/kg, iv, d 1, 4), 31.8 g. In addition, the “Tumor Weight (g) X ± SD” value in the data set with sarcoma 180 (20 mg/kg, iv, d 1, 4) is listed as 1.20 ± 0.09 g; in the data set with sarcoma 180 (40 mg/kg, iv, d 1, 4), 1.25 ± 0.45 g. Also, in the data set with sarcoma 180 (setting [6]), the inhibition in vivo at 20 mg/kg is 25%. In addition, the inhibition in vivo at 40 mg/kg with sarcoma 180 (setting [7]) amounted to 21.9%.
Turning to `CCC1=C[C@@H]2CN(CCc3c([nH]c4ccccc34)[C@@](C(=O)OC)(c3cc4c(cc3OC)N(C)[C@H]3C(O)(CNC(=O)c5ccc6c(c5)OCO6)[C@H](OC(C)=O)[C@]5(CC)C=CCN6CC[C@]43C65)C2)C1` (stereo partly shown) [BM47], the “cell-based efficacy, inhibition” value in data set [1] is on record as “excellent cell-based efficacy”. Further, the IC50 was determined as 14.4 nM in data set [1] (setting [3]) and 19 nM in data set [2] (setting [4]). In addition, the “Average weight (g) At sacrifice” value in the data set with sarcoma 180 (10 mg/kg, iv, d 1, 4) worked out at 25.3 g; in the data set on sarcoma 180 (20 mg/kg, iv d 1), 23.3 g. Besides, the “Tumor Weight (g) X ± SD” value stood at 0.67 ± 0.07 g with sarcoma 180 (10 mg/kg, iv, d 1, 4) and 0.54 ± 0.17 g in the data set on sarcoma 180 (20 mg/kg, iv d 1). The inhibition in vivo at 10 mg/kg in the data set on sarcoma 180 was 58.1%. Moreover, the inhibition in vivo at 20 mg/kg in the data set on sarcoma 180 (setting [5]) was 66.3%.
Regarding `CCC1=C[C@@H]2CN(CCc3c([nH]c4ccccc34)[C@@](C(=O)OC)(c3cc4c(cc3OC)N(C)[C@H]3C(O)(CNC(=O)OCC5CC5)[C@H](OC(C)=O)[C@]5(CC)C=CCN6CC[C@]43[C@@H]65)C2)C1` (stereo partly shown) [BM57], the “cell-based efficacy, inhibition” value in data set [1] was “excellent cell-based efficacy”. Besides, the IC50 in data set [1] (setting [3]) is 60.6 nM. The IC50 in data set [2] (setting [4]) came out at 13.2 nM. In addition, in the data set on sarcoma 180 (10 mg/kg, iv, d 1, 4), the “Average weight (g) At sacrifice” value was 25.2 g and the “Tumor Weight (g) X ± SD” value stood at 0.26 ± 0.07 g. For the same molecule, the inhibition in vivo at 10 mg/kg in the data set with sarcoma 180 was determined as 83.8%.
Consider `CC[C@]12C=CCN3CC[C@@]4(c5cc([C@@]6(C(=O)OC)C[C@@H]7C[C@@H](C(C)(F)F)CN(CCc8c6[nH]c6ccccc86)C7)c(OC)cc5N(C)[C@H]4C(O)(COC(C)=O)[C@@H]1OC(C)=O)[C@@H]32` (stereo partly shown) [BM75], for which the IC50 in data set [1] (setting [3]) and in data set [2] (setting [4]) was above 1000 nM each time. Moreover, the “Average weight (g) At sacrifice” value came to 30.9 g in the data set on sarcoma 180 (20 mg/kg, iv, d 1, 4) and 33.3 g in the data set with sarcoma 180 (40 mg/kg, iv, d 1, 4). Further, the “Tumor Weight (g) X ± SD” value was 1.53 ± 0.56 g in the data set with sarcoma 180 (20 mg/kg, iv, d 1, 4) and 1.85 ± 0.32 g in the data set with sarcoma 180 (40 mg/kg, iv, d 1, 4). Moreover, the inhibition in vivo at 20 mg/kg with sarcoma 180 (setting [6]) stood at 4.4%. Also, in the data set with sarcoma 180 (setting [7]), the inhibition in vivo at 40 mg/kg is 0%.
Take `CCC(=O)NCC1(O)[C@H](OC(C)=O)[C@]2(CC)C=CCN3CC[C@@]4(c5cc([C@@]6(C(=O)OC)C[C@@H]7C[C@@H](C(C)(F)F)CN(CCc8c6[nH]c6ccccc86)C7)c(OC)cc5N(C)[C@@H]14)[C@@H]32` (stereo partly shown) [BM78]: the IC50 in data set [1] (setting [3]) and in data set [2] (setting [4]) was above 1000 nM throughout. For the same molecule, the “Average weight (g) At sacrifice” value was 30.1 g with sarcoma 180 (20 mg/kg, iv, d 1, 4); 28.8 g in the data set with sarcoma 180 (40 mg/kg, iv d 1); 29.0 g in the data set with sarcoma 180 (40 mg/kg, iv, d 1, 4). Moreover, the “Tumor Weight (g) X ± SD” value with sarcoma 180 (20 mg/kg, iv, d 1, 4) worked out at 0.76 ± 0.29 g; in the data set with sarcoma 180 (40 mg/kg, iv d 1), 0.48 ± 0.15 g; in the data set with sarcoma 180 (40 mg/kg, iv, d 1, 4) it was 0.36 ± 0.11 g. Moreover, the inhibition in vivo at 20 mg/kg in the data set on sarcoma 180 (setting [6]) worked out at 52.5%. Besides, the inhibition in vivo at 40 mg/kg came to 70% in the data set with sarcoma 180 (read-out: Inhibition rate %, 40 mg/kg, iv d 1) and 77.5% in the data set on sarcoma 180 (setting [7]). Moreover, in the data set with sarcoma 180 (S180 in mice, iv), the “antitumor activity in vivo (in words)” value was “strong antitumor activity in vivo”.
Regarding `CCC1=C[C@@H]2CN(CCc3c([nH]c4ccccc34)[C@@](C(=O)OC)(c3cc4c(cc3OC)N(C)[C@H]3[C@@](O)(C(=O)OC)[C@H](OC(C)=O)[C@]5(CC)C=CCN6CC[C@]43[C@@H]65)C2)C1` [Anhydrovinblastine tartrate, anhydrovinblastine tartrate, reference compound], the IC50 in data set [1] (SRB assay, 72 hours incubation, ditartrate of all compounds used, read-out: A549 (IC50)) came to 60.2 nM. Besides, the IC50 in data set [2] (SRB assay, 72 hours incubation, ditartrate of all compounds used, read-out: Hela (IC50)) was found to be 40.2 nM. For the same molecule, in the data set with sarcoma 180 (10 mg/kg, iv, d 1, 4), the “Average weight (g) At sacrifice” value turned out to be 27.9 g, the Inhibition rate % is on record as 69.4* % and the “Tumor Weight (g) X ± SD” value amounted to 0.49 ± 0.10 g.
As to `CCC(=O)NCC1(O)[C@H](OC(C)=O)[C@]2(CC)C=CCN3CC[C@@]4(c5cc([C@@]6(C(=O)OC)C[C@@H]7C=C(CC)CN(CCc8c6[nH]c6ccccc86)C7)c(OC)cc5N(C)[C@@H]14)[C@@H]32` (stereo partly shown) [BM27], the “cell-based efficacy, inhibition” value in data set [1] was “excellent cell-based efficacy”. Further, the IC50 came out at 42.9 nM in data set [1] (setting [3]) and 13.4 nM in data set [2] (setting [4]). For the same molecule, the “Average weight (g) At sacrifice” value in the data set with sarcoma 180 (10 mg/kg, iv, d 1, 4) is listed as 21.4 g; in the data set on sarcoma 180 (20 mg/kg, iv d 1), 20.7 g. Moreover, the “Tumor Weight (g) X ± SD” value with sarcoma 180 (10 mg/kg, iv, d 1, 4) is given as 0.25 ± 0.06 g; in the data set with sarcoma 180 (20 mg/kg, iv d 1) it was 0.16 ± 0.03 g. In addition, the inhibition in vivo at 10 mg/kg with sarcoma 180 came out at 84.4%. Besides, the inhibition in vivo at 20 mg/kg in the data set with sarcoma 180 (setting [5]) was found to be 90%.
`CC[C@]12C=CCN3CC[C@@]4(c5cc([C@@]6(C(=O)OC)C[C@@H]7C[C@@H](C(C)(F)F)CN(CCc8c6[nH]c6ccccc86)C7)c(OC)cc5N(C)[C@H]4C(O)(CNC(=O)OCC(C)C)[C@@H]1OC(C)=O)[C@@H]32` (stereo partly shown) [BM80]: the IC50 in data set [1] (setting [3]) and in data set [2] (setting [4]) was above 1000 nM throughout. Moreover, the “Average weight (g) At sacrifice” value in the data set with sarcoma 180 (20 mg/kg, iv, d 1, 4) came to 34.5 g; with sarcoma 180 (40 mg/kg, iv, d 1, 4) it was 32.5 g. Moreover, the “Tumor Weight (g) X ± SD” value is 1.55 ± 0.34 g with sarcoma 180 (20 mg/kg, iv, d 1, 4) and 1.58 ± 0.12 g with sarcoma 180 (40 mg/kg, iv, d 1, 4). The inhibition in vivo at 20 mg/kg in the data set on sarcoma 180 (setting [6]) came out at 3.1%. In addition, the inhibition in vivo at 40 mg/kg in the data set on sarcoma 180 (setting [7]) was 1.2%.
